The results in this text go back to patent US8883799B2, “Tricyclic PI3K inhibitor compounds and methods of use” (Genentech, Inc., priority 2010, dated 2014).

Each structure is given as a SMILES string.

In one test the test system is PC3. In words: In vitro cell proliferation assay (CellTiter-Glo), PC3. The test is classed as cell-based. Particulars: Homo sapiens, PC-3; Cell line: PC3; Tissue type: prostate; Mutation Status: PTEN; read-out: EC50 (μmole). On the procedure: (§1) Efficacy of Formula I compounds was measured by a cell proliferation assay employing the following protocol (Promega Corp. Technical Bulletin TB288; Mendoza et al (2002) Cancer Res. 62:5485-5488):
(§2) 1. An aliquot of 100 μl of cell culture containing about 10^4 cells (PC3, Detroit562, or MDAMB361.1) in medium was deposited in each well of a 384-well, opaque-walled plate.
(§3) 2. Control wells were prepared containing medium and without cells.
(§4) 3. The compound was added to the experimental wells and incubated for 3-5 days.
(§5) 4. The plates were equilibrated to room temperature for approximately 30 minutes.
(§6) 5. A volume of CellTiter-Glo® Reagent equal to the volume of cell culture medium present in each well was added.
(§7) 6. The contents were mixed for 2 minutes on an orbital shaker to induce cell lysis.
(§8) 7. The plate was incubated at room temperature for 10 minutes to stabilize the luminescence signal.
(§9) 8. Luminescence was recorded and reported in graphs as RLU=relative luminescence units.
(§10) Alternatively, cells were seeded at optimal density in a 96 well plate and incubated for 4 days in the presence of test compound. Alamar Blue™ was subsequently added to the assay medium, and cells were incubated for 6 hr before reading at 544 nm excitation, 590 nm emission. EC50 values were calculated using a sigmoidal dose response curve fit. The term EC50 refers to the half maximal effective concentration and is the concentration at which a drug induces a response halfway between the baseline and maximum after some specified exposure time. It is commonly used as a measure of drug potency.
(§11) The anti-proliferative effects of Formula I exemplary compounds were measured by the CellTiter-Glo® Assay against various tumor cell lines, including the following: […]
A general note: ATP-based viability assays read luminescence as a measure of living cells.

The test system of another test is MDA-MB-361.1. In words: In vitro cell proliferation assay (CellTiter-Glo), MDA-MB-361.1. The test is classed as cell-based. Particulars: Cell line: MDA-MB-361.1; Tissue type: breast; Mutation Status: PI3K; read-out: EC50 (μmole). On the procedure: as §1, §2, §3, §4, §5, §6, §7, §8, §9, §10, §11
A further test concerns the target T1, p110 alpha PI3K (Homo sapiens, UniProt P42336).
T1 construct: purchased Upstate Cell Signaling Solutions, Charlottesville, Va
Put plainly: p110α (alpha) PI3K binding assay (fluorescence polarization; alternatively radiometric). As to conditions: read-out: IC50, Ki (μmole) PI3K, p110 alpha binding assay. Here is the method:
Binding Assays: Initial polarization experiments were performed on an Analyst HT® 96-384 (Molecular Devices Corp, Sunnyvale, Calif.). […] After an incubation time of 30 minutes at room temperature, the reactions were stopped by the addition of GRP-1 and PIP3-TAMRA probe (Echelon-Inc., Salt Lake City, Utah) 100 nM and 5 nM final concentrations respectively. Read with standard cut-off filters for the rhodamine fluorophore (λex=530 nm; λem=590 nm) in 384-well black low volume Proxiplates® (PerkinElmer, Wellesley, Mass.) Fluorescence polarization values were plotted as a function of the protein concentration, and the EC50 values were obtained by fitting the data to a 4-parameter equation using KaleidaGraph® software (Synergy software, Reading, Pa.). This experiment also establishes the appropriate protein concentration to use in subsequent competition experiments with inhibitors.
After an incubation time of 30 minutes at room temperature, the reactions were stopped by the addition of GRP-1 and PIP3-TAMRA probe (Echelon-Inc., Salt Lake City, Utah) 100 nM and 5 nM final concentrations respectively. Read with standard cut-off filters for the rhodamine fluorophore (λex=530 nm; λem=590 nm) in 384-well black low volume PROXIPLATES® (PerkinElmer, Wellesley, Mass.) Fluorescence polarization values were plotted as a function of the antagonist concentration, and the IC50 values were obtained by fitting the data to a 4-parameter equation in Assay Explorer® software (MDL, San Ramon, Calif.).
The Formula I compound was serially diluted in 100% DMSO. The kinase reaction was incubated for 1 hr at room temperature, and the reaction was terminated by the addition of PBS. IC50 values were subsequently determined using sigmoidal dose-response curve fit (variable slope).
For orientation: Fluorescence polarisation rises when a labelled molecule tumbles more slowly, as on binding a larger partner.

T1 sequence (P42336 whole entry): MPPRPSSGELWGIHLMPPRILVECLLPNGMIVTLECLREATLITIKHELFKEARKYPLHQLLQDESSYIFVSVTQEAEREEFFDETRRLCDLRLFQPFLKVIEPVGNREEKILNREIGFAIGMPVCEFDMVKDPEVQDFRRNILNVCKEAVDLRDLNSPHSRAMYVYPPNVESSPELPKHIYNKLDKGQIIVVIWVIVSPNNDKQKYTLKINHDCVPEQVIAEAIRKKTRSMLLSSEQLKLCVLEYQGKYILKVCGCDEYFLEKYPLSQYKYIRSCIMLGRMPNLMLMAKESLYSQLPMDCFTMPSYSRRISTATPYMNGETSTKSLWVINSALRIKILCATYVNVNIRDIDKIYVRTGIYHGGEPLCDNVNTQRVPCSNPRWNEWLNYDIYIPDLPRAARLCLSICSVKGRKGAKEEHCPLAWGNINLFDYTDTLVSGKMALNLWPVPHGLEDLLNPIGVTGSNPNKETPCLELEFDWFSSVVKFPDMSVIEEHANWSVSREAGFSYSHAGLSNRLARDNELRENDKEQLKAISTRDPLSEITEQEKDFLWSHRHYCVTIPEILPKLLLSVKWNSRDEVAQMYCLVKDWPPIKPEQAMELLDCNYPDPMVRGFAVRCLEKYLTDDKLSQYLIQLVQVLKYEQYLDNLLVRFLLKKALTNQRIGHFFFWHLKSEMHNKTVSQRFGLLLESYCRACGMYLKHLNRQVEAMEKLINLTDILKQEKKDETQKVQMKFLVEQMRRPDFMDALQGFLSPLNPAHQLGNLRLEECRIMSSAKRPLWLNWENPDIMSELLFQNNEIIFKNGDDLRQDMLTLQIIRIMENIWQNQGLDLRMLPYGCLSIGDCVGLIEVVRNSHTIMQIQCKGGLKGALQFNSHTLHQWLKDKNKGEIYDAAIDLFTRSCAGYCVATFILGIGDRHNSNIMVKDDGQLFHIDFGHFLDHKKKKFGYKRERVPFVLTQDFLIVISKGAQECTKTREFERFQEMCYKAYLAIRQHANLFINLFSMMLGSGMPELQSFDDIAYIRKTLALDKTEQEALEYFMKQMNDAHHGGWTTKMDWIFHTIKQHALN
T1 sequence (P27986 whole entry partner): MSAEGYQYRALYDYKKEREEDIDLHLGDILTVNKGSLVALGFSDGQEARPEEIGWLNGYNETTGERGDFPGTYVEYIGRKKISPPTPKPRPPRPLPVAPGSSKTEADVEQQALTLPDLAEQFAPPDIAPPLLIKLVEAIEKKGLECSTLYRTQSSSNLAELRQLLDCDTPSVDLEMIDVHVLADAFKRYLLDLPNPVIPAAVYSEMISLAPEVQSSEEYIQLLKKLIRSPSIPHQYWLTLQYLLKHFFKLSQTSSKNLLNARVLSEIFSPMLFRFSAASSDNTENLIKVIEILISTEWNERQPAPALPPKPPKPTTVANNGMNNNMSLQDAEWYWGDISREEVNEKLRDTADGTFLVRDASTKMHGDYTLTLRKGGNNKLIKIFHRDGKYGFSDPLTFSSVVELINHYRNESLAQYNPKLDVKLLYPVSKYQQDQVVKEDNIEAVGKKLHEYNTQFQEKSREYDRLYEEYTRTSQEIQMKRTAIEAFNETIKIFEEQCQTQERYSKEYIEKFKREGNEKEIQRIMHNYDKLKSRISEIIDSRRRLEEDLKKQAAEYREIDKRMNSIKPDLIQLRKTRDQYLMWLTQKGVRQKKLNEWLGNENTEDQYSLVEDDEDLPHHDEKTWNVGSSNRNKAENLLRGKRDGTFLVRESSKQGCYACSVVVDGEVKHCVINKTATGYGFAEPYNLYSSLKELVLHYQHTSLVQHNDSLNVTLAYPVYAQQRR

For the compound `CCNC(=O)Nc1ccc(-c2nc(N3CCOCC3)c3c(n2)C2(C)CCOC2N3C)cc1` (stereo not shown) [Compound 101, 1-[4-(3a,8-dimethyl-7-morpholin-4-yl-3,3a,8,8a-tetrahydro-2h-1-oxa-4,6,8-triaza-cyclopenta[a]inden-5-yl)-phenyl]-3-ethyl-urea], the 50% effective concentration (EC50) (as a rule, the midpoint of the concentration-response curve) in the test on PC3 stood at 0.208 µM; with MDA-MB-361.1 it was 0.315 µM.

`Cc1nc(N)ncc1-c1nc(N2CCOCC2)c2nc3n(c2n1)CCOC3(C)C` [Compound 102, 5-(6,6-dimethyl-4-morpholino-8,9-dihydro-6h-[1,4]oxazino[3,4-e]purin-2-yl)-4-methylpyrimidin-2-amine]: the EC50 was determined as 2 µM with PC3 and 0.081 µM in the test on MDA-MB-361.1.

As to `CC1(C)CCn2c(nc3c(N4CCOCC4)nc(-c4cnc(N)nc4)nc32)O1` [Compound 115, 5-(7,7-dimethyl-4-morpholino-8,9-dihydro-7h-[1,3]oxazino[2,3-e]purin-2-yl)pyrimidin-2-amine], the figures for the 50% effective concentration (EC50) in the test with PC3 and with MDA-MB-361.1 were 1.8 µM and 0.958 µM, respectively.

As to `Nc1ncc(-c2nc(N3CCOCC3)c3c(n2)N2CCC[C@H]2CO3)cn1` [Compound 122, 5-((S)-6-Morpholin-4-yl-2,3,3a,4-tetrahydro-1H-5-oxa-7,9,9b-triaza-cyclopenta[a]naphthalen-8-yl)-pyrimidin-2-ylamine], the concentration for a half-maximal effect (EC50) stood at 2 µM in the test on PC3 and 3.2 µM in the test with MDA-MB-361.1. Turning to `Nc1ncc(-c2nc(N3CCOCC3)c3nc4n(c3n2)CCO[C@H]4C(F)(F)F)cn1` [Compound 139, (R)-5-(4-morpholino-6-(trifluoromethyl)-8,9-dihydro-6H-[1,4]oxazino[3,4-e]purin-2-yl)pyrimidin-2-amine], the EC50 worked out at 0.697 µM in the test with PC3 and 0.424 µM with MDA-MB-361.1.

With `CC1(C)OCCn2c1nc1c(N3CCOCC3)nc(-c3cccc(CN4CCOCC4)c3)nc12` [Compound 146, 6,6-dimethyl-4-morpholino-2-(3-(morpholinomethyl)phenyl)-8,9-dihydro-6H-[1,4]oxazino[3,4-e]purine], the IC50 – broadly, the concentration that inhibits the measured activity by half – on p110 alpha PI3K is above 0.695 µM. Still for that read-out and setting: for `CC1(C)OCCn2c1nc1c(N3CCOCC3)nc(-c3cccc(OCc4ccccc4)c3)nc12` [Compound 147, 2-(3-(benzyloxy)phenyl)-6,6-dimethyl-4-morpholino-8,9-dihydro-6H-[1,4]oxazino[3,4-e]purine] the value was above 0.695 µM.

`CN1CCN(c2ccc(-c3nc(N4CCOCC4)c4nc5n(c4n3)CCOC5(C)C)cn2)CC1` [Compound 149, 6,6-dimethyl-2-(6-(4-methylpiperazin-1-yl)yridine-3-yl)-4-morpholino-8,9-dihydro-6H-[1,4]oxazino[3,4-e]purine]: the half-maximal inhibitory concentration (IC50) on p110 alpha PI3K was above 0.695 µM. As to `CC1(C)OCCn2c1nc1c(N3CCOCC3)nc(-c3ccc(C#N)cc3)nc12` [Compound 151, 4-(6,6-dimethyl-4-morpholino-8,9-dihydro-6H-[1,4]oxazino[3,4-e]purin-2-yl)benzonitrile], on p110 alpha PI3K, the IC50 was above 0.695 µM. Still for that read-out and setting: for `CNC(=O)c1ccc(-c2nc(N3CCOCC3)c3nc4n(c3n2)CCOC4(C)C)cn1` [Compound 153, 5-(6,6-dimethyl-4-morpholino-8,9-dihydro-6H-[1,4]oxazino[3,4-e]purin-2-yl)-N-methylpicolinamide] the value was above 0.695 µM; for `CC1(C)OCCn2c1nc1c(N3CCOCC3)nc(-c3ccc(OCc4ccccc4)cc3)nc12` [Compound 154, 2-(4-(benzyloxy)phenyl)-6,6-dimethyl-4-morpholino-8,9-dihydro-6H-[1,4]oxazino[3,4-e]purine], above 0.695 µM. On to `CN(C)c1cccc(-c2nc(N3CCOCC3)c3nc4n(c3n2)CCOC4(C)C)c1` [Compound 155, 3-(6,6-dimethyl-4-morpholino-8,9-dihydro-6H-[1,4]oxazino[3,4-e]purin-2-yl)-N,N-dimethylaniline], for which, at p110 alpha PI3K, the concentration for half-maximal inhibition (IC50) is above 0.695 µM. Same read-out and setting: the result for `CN1CCN(c2ccc(-c3nc(N4CCOCC4)c4nc5n(c4n3)CCOC5(C)C)cc2)CC1` [Compound 156, 6,6-dimethyl-2-(4-(4-methylpiperazin-1-yl)phenyl)-4-morpholino-8,9-dihydro-6H-[1,4]oxazino[3,4-e]purine] reads above 0.695 µM; that for `CC1(C)OCCn2c1nc1c(N3CCOCC3)nc(-c3ccc(N4CCCCC4)cc3)nc12` [Compound 157, 6,6-dimethyl-4-morpholino-2-(4-(piperidin-1-yl)phenyl)-8,9-dihydro-6H-[1,4]oxazino[3,4-e]purine], above 0.695 µM. The same measure, in the same setting: for `CN1CCN(C(=O)c2ccc(-c3nc(N4CCOCC4)c4nc5n(c4n3)CCOC5(C)C)cc2)CC1` [Compound 161, (4-(6,6-dimethyl-4-morpholino-8,9-dihydro-6H-[1,4]oxazino[3,4-e]purin-2-yl)phenyl)(4-methylpiperazin-1-yl)methanone] the value was above 0.695 µM; for `CC1(C)OCCn2c1nc1c(N3CCOCC3)nc(-c3cccc(C(=O)NC4CC4)c3)nc12` [Compound 162, N-cyclopropyl-3-(6,6-dimethyl-4-morpholino-8,9-dihydro-6H-[1,4]oxazino[3,4-e]purin-2-yl)benzamide], above 0.695 µM. In the case of `CC(C)NC(=O)Nc1ccc(-c2nc(N3CCOCC3)c3nc4n(c3n2)CCOC4(C)C)cc1` [Compound 165, 1-(4-(6,6-dimethyl-4-morpholino-8,9-dihydro-6H-[1,4]oxazino[3,4-e]purin-2-yl)phenyl)-3-isopropylurea], the EC50 with PC3 came out at 1.3 µM; in the test with MDA-MB-361.1, 1.2 µM. For `CC1(C)OCCc2c1sc1c(N3CCOCC3)nc(-c3cnc(N)nc3)nc21` [Compound 168, 5-(8,8-Dimethyl-1-morpholin-4-yl-5,8-dihydro-6H-7-oxa-9-thia-2,4-diaza-fluoren-3-yl)-pyrimidin-2-ylamine], the EC50 in the test on PC3 was found to be 0.215 µM; in the test on MDA-MB-361.1 it was 0.237 µM. For `FC(F)(F)C1OCCn2c1nc1c(N3CCOCC3)nc(-c3cccc4[nH]ncc34)nc12` (stereo not shown) [Compound 169, 2-(1H-indazol-4-yl)-4-morpholino-6-(trifluoromethyl)-8,9-dihydro-6H-[1,4]oxazino[3,4-e]purine], the results for the EC50 with PC3 and with MDA-MB-361.1 were 6.9 µM and 4.4 µM, respectively. On to `Oc1cccc(-c2nc(N3CCOCC3)c3nc4n(c3n2)CCOC4C(F)(F)F)c1` (stereo not shown) [Compound 170, 3-(4-morpholino-6-(trifluoromethyl)-8,9-dihydro-6H-[1,4]oxazino[3,4-e]purin-2-yl)phenol], for which the values for the half-maximal effective concentration (EC50) in the test on PC3 and in the test with MDA-MB-361.1 were 1.1 µM and 0.92 µM, respectively. For `C[C@@H]1CN(c2nc(-c3cnc(N)nc3)nc3c2nc2n3CCOC2(C)C)C[C@H](C)O1` [Compound 171, 5-(4-((2S,6R)-2,6-dimethylmorpholino)-6,6-dimethyl-8,9-dihydro-6H-[1,4]oxazino[3,4-e]purin-2-yl)pyrimidin-2-amine], in that order: 3.8 µM and 3.1 µM. In the case of `CC1(C)CN(c2nc(-c3cnc(N)nc3)nc3c2nc2n3CCOC2(C)C)CCO1` [Compound 172, 5-(4-(2,2-dimethylmorpholino)-6,6-dimethyl-8,9-dihydro-6H-[1,4]oxazino[3,4-e]purin-2-yl)pyrimidin-2-amine], the EC50 in the test with PC3 worked out at 1.4 µM; in the test on MDA-MB-361.1, 1.5 µM.

For the compound `CC1(C)OCCn2c1nc1c(N3C[C@@H]4C[C@H]3CO4)nc(-c3cnc(N)nc3)nc12` [Compound 174, 5-(4-((1S,4S)-2-oxa-5-azabicyclo[2.2.1]heptan-5-yl)-6,6-dimethyl-8,9-dihydro-6H-[1,4]oxazino[3,4-e]purin-2-yl)pyrimidin-2-amine], the concentration for a half-maximal effect (EC50) amounted to 3.6 µM with PC3 and 3.4 µM in the test with MDA-MB-361.1. The corresponding values for `CC1c2nc3c(N4CCOCC4)nc(-c4cnc(N)nc4)nc3n2CCN1C` (stereo not shown) [Compound 176, 5-(6,7-dimethyl-4-morpholino-6,7,8,9-tetrahydropyrazino[2,1-e]purin-2-yl)pyrimidin-2-amine] are 1.9 µM and 0.889 µM.
